Source: US6391914B1, “Optically active aminopentane derivatives” (Fujimoto Brothers Co., Ltd., priority 1998, dated 2002)
Counter-ions that a name gives are not always drawn.

How the values were obtained:
[1] = system: isolated rat brain stem (electric-stimulated); assay: Biogenic amines released from the rat brain stem by electrostimulation; conditions: for Minimum dose causing to release noradrenaline from electric-stimulated brain stem: electrostimulation 3 Hz, 1 ms, 60 V; for Minimum dose causing to release serotonin from electric-stimulated brain stem / Minimum dose causing to release dopamine from electric-stimulated brain stem: electrostimulation
[2] = system: tetrabenazine-treated rats; assay: Conditioned avoidance task in the shuttle box, tetrabenazine-treated rats; assay type: in vivo, rat; conditions: for Minimum dose to cause conditioned avoidance reflexes (CARs) in tetrabenazine-treated rats in shuttle box: with tetrabenazine 1 mg/kg s.c.
Description: The method described in Life Sci., 58, 817-827 (1996) was used. The effects on conditioned avoidance reflex (CARs) were analyzed in the shuttle box using male and female rats (weighing 200-220 g) whose learning abilities were reduced by the administration of tetrabenazine. The instrument was constructed, according to the device described in Psychopharmacologia 10, 1-5 (1966). The male and female rats (weighing 200-220 g) were trained to cross the barrier under a conditioned stimulus. (CS, light flash and buzzer sounds). […] In addition, the unconcerned performance to this condition was noted as an intersignal reaction (IR). The rats were trained with 100 trials a day for 5 days. Each trial was carried out with 15-sec intertrial interval. Tetrabenazine saline solution was subcutaneously administered at a dose of 1 mg/kg 1 hr before the test. Then the solution of the compounds of the invention was administered at the doses of 1, 2, 2.5 and 5 mg/kg, s.c., simultaneously with tetrabenazine. The numbers of CARs, EFs and IRs were automatically counted and analyzed using one-way analysis of variance (ANOVA).
Therefore, the compound has no stimulant-like excitement.

[3] = system: brain tissues (striatum, substantia nigra, tuberculum olfactorium, locus coeruleus and raphe); assay: Biogenic amines released from brain tissue after s.c. administration; assay type: in vivo, Wistar rats
Description: The method described in Life Sci., 56, 611-620 (1995) was used. After Wistar rats were decapitated, appropriate brain tissues (striatum, substantia nigra, tuberculum olfactorium, locus coeruleus and raphe) were isolated quickly and soaked in oxygenated (95% O2 and 5% CO2) Krebs' solution at 37° C. The composition of Krebs' solution (mmol/L) was as follows: NaCl 111, KCl 4.7, CaCl2 2.5, MgSO4 1.64, NaHCO3 25, KH2PO4 1.2, glucose 12 mg/L ascorbic acid and 20 mg/l EDTA-2Na. The preparations, submerged in one organ bath, were as follows: 1) four pieces of striatum (each halved), 2) four pieces of substantia nigra, 3) four pieces of tuberculum olfactorium, 4) eight pieces of locus coeruleus, 5) eight pieces of raphe. After incubating the tissue for 20 min, the Krebs' solution was exchanged. After the tissue was submerged for 20 min in Krebs' solution containing the compounds of the invention, the biogenic amine released during this period was quantified. The compounds of the invention, the (+)-isomer, the racemic compound and control compound, were respectively dissolved in saline, and subcutaneously administered 30 min before dissection of the brain samples. In the case of noradrenaline and dopamine, samples were purified on microcolumns (BDH Chemicals Ltd.) filled with 60 mg of alumina according to the method described in J. Pharmacol. Exp. Ther., 138, 360-372 (1962). In the case of serotonin, samples were purified on 15 mg Sephadex G-10 microcolumns (Pharmacia). Dopamine, noradrenaline and serotonin were quantified by high performance liquid chromatography (Waters 746 data module) with electrochemical detection (Waters 460 electrochemical detector). Waters Resolve 5μ Spherical C18 3.9×150 mm column was used as separating column and triethylamine-phosphate buffer (pH 5.2) containing 200/mg/L octaine sulfonate sodium and 18 mg/L EDTA-2Na with 6% acetonitrile, was used as mobile phase. The amount of appropriate amine released for 20 min was noted as nmol/g tissue. The differences among means were tested using Student's t-test. Significant level was set at P<0.05.

[4] = system: primary cultured hepatocyte; assay: Toxicity screening using primary cultured hepatocyte (LDH release); assay type: cell-based, rat; conditions: 24 hr
Description: The hepatocytes was prepared from rat liver using collagenase perfusion method and the cell suspension containing 5×10^5 cells/mL were prepared. After cultivation for 24 hr, the medium was changed to the William's Medium E (GIBCO ERL) containing 10 or 100 μmol/L of the compounds of the invention. After cultivation for 24 hr, the activity of lactatedehydrogenase (LDH) released into the medium was measured.

SMILES	Minimum dose causing to release noradrenaline from electric-stimulated brain stem [1]	Minimum dose causing to release serotonin from electric-stimulated brain stem [1]	Minimum dose to cause conditioned avoidance reflexes (CARs) in tetrabenazine-treated rats in shuttle box ([2]; s.c.)	Percent control of LDH release from primary cultured hepatocyte ([4]; 10 μmol/L)	Percent control of LDH release from primary cultured hepatocyte ([4]; 100 μmol/L)	Minimum dose causing to release dopamine from electric-stimulated brain stem [1]	Amount of dopamine released, Striatum ([3]; dose 0.0005 mg/kg s.c.)	Amount of dopamine released, Substantia Nigraia ([3]; dose 0.0005 mg/kg s.c.)	Amount of dopamine released, Tuberculum Olfactorium ([3]; dose 0.0005 mg/kg s.c.)	Amount of noradrenaline released, Locus Coeruleus ([3]; dose 0.0005 mg/kg s.c.)	Amount of serotonin released, Raphe ([3]; dose 0.0005 mg/kg s.c.)	Amount of dopamine released, Striatum ([3]; dose 0.0025 mg/kg s.c.)	Amount of dopamine released, Substantia Nigraia ([3]; dose 0.0025 mg/kg s.c.)	Amount of dopamine released, Tuberculum Olfactorium ([3]; dose 0.0025 mg/kg s.c.)	Amount of noradrenaline released, Locus Coeruleus ([3]; dose 0.0025 mg/kg s.c.)	Amount of serotonin released, Raphe ([3]; dose 0.0025 mg/kg s.c.)	Amount of dopamine released, Striatum ([3]; dose 0.0500 mg/kg s.c.)	Amount of dopamine released, Substantia Nigraia ([3]; dose 0.0500 mg/kg s.c.)	Amount of dopamine released, Tuberculum Olfactorium ([3]; dose 0.0500 mg/kg s.c.)	Amount of noradrenaline released, Locus Coeruleus ([3]; dose 0.0500 mg/kg s.c.)	also measured
CCCNC(CCC)Cc1cc2ccccc2o1.Cl (racemic) [Racemic compound, (±)-1-(benzofuran-2-yl)-2-propylaminopentane hydrochloride]	5 µg/mL	1 µg/mL	1 mg mg/kg	90.28 ± 2.85 Percent control	112.10 ± 36.98 Percent control	–	–	–	–	–	–	–	–	–	–	–	–	–	–	–	Amount of dopamine released, Striatum ([3]; dose 0.0100 mg/kg s.c.): 5.3 ± 0.14 nmol/g · tissue. 20 min.; Amount of dopamine released, Substantia Nigraia ([3]; dose 0.0100 mg/kg s.c.): 6.6 ± 0.04 nmol/g · tissue. 20 min.; Amount of dopamine released, Tuberculum Olfactorium ([3]; dose 0.0100 mg/kg s.c.): 6.5 ± 0.20 nmol/g · tissue. 20 min.; Amount of noradrenaline released, Locus Coeruleus ([3]; dose 0.0100 mg/kg s.c.): 4.3 ± 0.20 nmol/g · tissue. 20 min.; Amount of serotonin released, Raphe ([3]; dose 0.0100 mg/kg s.c.): 0.457 ± 0.04 nmol/g · tissue. 20 min.
CCCNC(CCC)Cc1cc2ccccc2o1.Cl (single isomer, unassigned; (+)) [(+)-Isomer, (+)-1-(benzofuran-2-yl)-2-propylaminopentane hydrochloride]	0.5 µg/mL	10 µg/mL	2.5 mg mg/kg	124.41 ± 12.54 Percent control	116.72 ± 6.91 Percent control	5 µg/mL	4.4 ± 0.13 nmol/g · tissue. 20 min.	13.8 ± 0.25 nmol/g · tissue. 20 min.	6.7 ± 0.06 nmol/g · tissue. 20 min.	10.3 ± 0.35 nmol/g · tissue. 20 min.	1.785 ± 0.01 nmol/g · tissue. 20 min.	4.4 ± 0.10 nmol/g · tissue. 20 min.	8.4 ± 0.14 nmol/g · tissue. 20 min.	4.8 ± 0.25 nmol/g · tissue. 20 min.	7.4 ± 0.15 nmol/g · tissue. 20 min.	1.138 ± 0.05 nmol/g · tissue. 20 min.	4.4 ± 0.17 nmol/g · tissue. 20 min.	7.1 ± 0.24 nmol/g · tissue. 20 min.	4.8 ± 0.18 nmol/g · tissue. 20 min.	4.4 ± 0.10 nmol/g · tissue. 20 min.	Amount of serotonin released, Raphe ([3]; dose 0.0500 mg/kg s.c.): 0.642 ± 0.02 nmol/g · tissue. 20 min.; Amount of dopamine released, Striatum ([3]; dose 0.1000 mg/kg s.c.): 5.8 ± 0.21 nmol/g · tissue. 20 min.; Amount of dopamine released, Substantia Nigraia ([3]; dose 0.1000 mg/kg s.c.): 15.9 ± 0.25 nmol/g · tissue. 20 min.; Amount of dopamine released, Tuberculum Olfactorium ([3]; dose 0.1000 mg/kg s.c.): 7.3 ± 0.20 nmol/g · tissue. 20 min.; Amount of noradrenaline released, Locus Coeruleus ([3]; dose 0.1000 mg/kg s.c.): 5.6 ± 0.25 nmol/g · tissue. 20 min.; Amount of serotonin released, Raphe ([3]; dose 0.1000 mg/kg s.c.): 0.381 ± 0.01 nmol/g · tissue. 20 min.
CCCNC(CCC)Cc1cc2ccccc2o1 (single isomer, unassigned; (-)) [The compound of the invention, (−)-1-(benzofuran-2-yl)-2-propylaminopentane hydrochloride]	0.01 µg/mL	0.0005 µg/mL	5 × 10^−2 mg mg/kg	–	–	0.05 µg/mL	4.8 ± 0.16 nmol/g · tissue. 20 min.	13.8 ± 0.23 nmol/g · tissue. 20 min.	6.7 ± 0.08 nmol/g · tissue. 20 min.	15.4 ± 0.55 nmol/g · tissue. 20 min.	0.914 ± 0.03 nmol/g · tissue. 20 min.	5.7 ± 0.19 nmol/g · tissue. 20 min.	13.1 ± 0.21 nmol/g · tissue. 20 min.	6.9 ± 0.31 nmol/g · tissue. 20 min.	3.9 ± 0.05 nmol/g · tissue. 20 min.	0.421 ± 0.03 nmol/g · tissue. 20 min.	6.5 ± 0.09 nmol/g · tissue. 20 min.	10.9 ± 0.11 nmol/g · tissue. 20 min.	7.7 ± 0.19 nmol/g · tissue. 20 min.	4.3 ± 0.25 nmol/g · tissue. 20 min.	Noradrenaline, serotonin and dopamine release on electrostimulation (FIG. 1) ([1]; electrostimulated brain stem): confirmed to enhance noradrenaline, serotonin and dopamine release; Reduced learning function of rats administered with tetrabenazine (FIG. 2) ([2]; shuttle box, s.c.): significantly improved; Intersignal reactions (IRs) ([2]; shuttle box, tetrabenazine-treated rats): did not significantly change IRs; Amount of dopamine released, Striatum ([3]; dose 0.0001 mg/kg s.c.): 4.7 ± 0.14 nmol/g · tissue. 20 min.; Amount of dopamine released, Substantia Nigraia ([3]; dose 0.0001 mg/kg s.c.): 14.8 ± 0.36 nmol/g · tissue. 20 min.; Amount of dopamine released, Tuberculum Olfactorium ([3]; dose 0.0001 mg/kg s.c.): 7.2 ± 0.23 nmol/g · tissue. 20 min.; Amount of noradrenaline released, Locus Coeruleus ([3]; dose 0.0001 mg/kg s.c.): 6.6 ± 0.10 nmol/g · tissue. 20 min.; Amount of serotonin released, Raphe ([3]; dose 0.0001 mg/kg s.c.): 1.040 ± 0.03 nmol/g · tissue. 20 min.; Amount of serotonin released, Raphe ([3]; dose 0.0500 mg/kg s.c.): 0.457 ± 0.01 nmol/g · tissue. 20 min.; Percent control of LDH release from primary cultured hepatocyte ([4]; 10 μmol/L, hydrochloride): 104.94 ± 4.96 Percent control; Percent control of LDH release from primary cultured hepatocyte ([4]; 10 μmol/L, listed as the compound of the invention, hydrochloride): not increase; Percent control of LDH release from primary cultured hepatocyte ([4]; 100 μmol/L, hydrochloride): 126.42 ± 8.04 Percent control; Percent control of LDH release from primary cultured hepatocyte ([4]; 100 μmol/L, listed as the compound of the invention, hydrochloride): slightly increased LDH release
